According to US20110124505A1, “Agricultural Compositions” (COGNIS IP MANAGEMENT GMBH, priority 2008, published 2011):

Experiment: Solubility tests of biocides in different solvents
Excerpt: The solubility of various herbicides, fungicides and insecticides has been tested using different solvents.

[1] = in 100 ml of solvent C8-C10 fatty acid dimethyl amide (1:1) (Example 11)
[2] = in 100 ml of solvent C8-C10 fatty acid methyl ester (Comparative Example C14)
[3] = in 100 ml of solvent C8 fatty acid dimethylamide (Example 9)
[4] = in 100 ml of solvent C10 fatty acid dimethyl amide (Example 10)
[5] = in 100 ml of solvent C18 fatty acid dimethyl amide (Comparative Example C13)

CCOc1cc(Oc2ccc(C(F)(F)F)cc2Cl)ccc1[N+](=O)[O-] [Oxyfluorfen]
Solubility (in 100 ml of solvent C6-C12 fatty alcohol + 6PO (Comparative Example C4)): 10 percent by weight
Solubility (in 100 ml of solvent C6 fatty acid dimethyl amide (Comparative Example C1)): 12 percent by weight
Solubility (in 100 ml of solvent C8-C10 fatty acid dimethyl amide (1:1) (Example 3)): 31 percent by weight
Solubility (in 100 ml of solvent C8-C10 fatty acid methyl ester (Comparative Example C3)): 3 percent by weight
Solubility (in 100 ml of solvent C8 fatty acid dimethylamide (Example 1)): 25 percent by weight
Solubility (in 100 ml of solvent C10 fatty acid dimethyl amide (Example 2)): 28 percent by weight
Solubility (in 100 ml of solvent C12-C15 benzoate (Comparative Example C5)): 7 percent by weight
Solubility (in 100 ml of solvent C12 fatty acid dimethyl amide (Example 4)): 27 percent by weight
Solubility (in 100 ml of solvent C18 fatty acid dimethyl amide (Comparative Example C2)): 19 percent by weight
Solubility (in 100 ml of solvent Di-C8 alkyl carbonate (Comparative Example C6)): 4 percent by weight

Cc1c(COC(=O)[C@@H]2[C@H](/C=C(\Cl)C(F)(F)F)C2(C)C)cccc1-c1ccccc1 (racemic) [Bifenthrin]
Solubility [1]: 34 percent by weight
Solubility [2]: 0 percent by weight
Solubility [3]: 30 percent by weight
Solubility [4]: 31 percent by weight
Solubility [5]: 10 percent by weight

O=C(NC(=O)c1c(F)cccc1F)Nc1ccc(OC(F)(F)C(F)OC(F)(F)F)c(Cl)c1 (stereo not drawn) [Novaluron]
Solubility [1]: 32 percent by weight
Solubility [2]: 1 percent by weight
Solubility [3]: 28 percent by weight
Solubility [4]: 28 percent by weight
Solubility [5]: 8 percent by weight

CC(C)(C)C(O)(CCc1ccc(Cl)cc1)Cn1cncn1 (stereo not drawn) [Tebucanazole]
Solubility (in 100 ml of solvent C6 fatty acid dimethyl amide (Comparative Example C7)): 18 percent by weight
Solubility (in 100 ml of solvent C8-C10 fatty acid dimethyl amide (1:1) (Example 7)): 39 percent by weight
Solubility (in 100 ml of solvent C8-C10 fatty acid methyl ester (Comparative Example C9)): 9 percent by weight
Solubility (in 100 ml of solvent C8 fatty acid dimethylamide (Example 5)): 30 percent by weight
Solubility (in 100 ml of solvent C10 fatty acid dimethyl amide (Example 6)): 33 percent by weight
Solubility (in 100 ml of solvent C12 fatty acid dimethyl amide (Example 8)): 35 percent by weight
Solubility (in 100 ml of solvent C18 fatty acid dimethyl amide (Comparative Example C8)): 22 percent by weight
Solubility (in 100 ml of solvent Di-C8 alkyl carbonate (Comparative Example C11)): 2 percent by weight
Solubility (in 100 ml of solvent Di-C8 alkyl ether (Comparative Example C12)): 2 percent by weight
Solubility (in 100 ml of solvent Triacetin (Comparative Example C10)): 6 percent by weight
